Target: T1, human 5HT1A-serotonergic receptor (Homo sapiens, UniProt P08908)
T1 construct: expressed in transfected cells; host or cells: HeLa (human), stably transfected; membranes
T1 sequence (P08908 1-422): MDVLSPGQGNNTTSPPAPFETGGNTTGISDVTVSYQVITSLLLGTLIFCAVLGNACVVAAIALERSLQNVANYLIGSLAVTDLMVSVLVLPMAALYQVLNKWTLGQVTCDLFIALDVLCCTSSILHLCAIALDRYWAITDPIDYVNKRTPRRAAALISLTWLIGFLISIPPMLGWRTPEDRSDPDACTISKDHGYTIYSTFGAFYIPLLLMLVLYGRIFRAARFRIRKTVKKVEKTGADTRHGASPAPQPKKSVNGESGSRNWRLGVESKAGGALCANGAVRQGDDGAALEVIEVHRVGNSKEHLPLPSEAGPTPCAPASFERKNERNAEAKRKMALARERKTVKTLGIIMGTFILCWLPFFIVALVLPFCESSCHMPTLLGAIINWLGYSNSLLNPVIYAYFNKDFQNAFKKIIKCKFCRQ
Experiment: Radioligand binding to recombinant 5-HT1A receptor ([3H]8-OH-DPAT, HeLa cell membranes)
Settings: 1 nM [3H]8-OH-DPAT; Ki from IC50 by the Cheng equation; read-out: Ki (nM), binding affinity for 5HT1A receptor
Description: Genomic clone G-21 encoding the human 5HT1A-serotonergic receptor was stably transfected in a human cell line (HeLa). HeLa cells were grown as monolayers in Dulbecco's modified Eagle medium (DMEM), containing 10% fetal bovine serum and gentamycin (100 μg/ml) at 37° C. in a humidified atmosphere of 5% CO2 and air. The cells were detached from the growth flask at 95% confluence by a cell scraper and were lysed in cold 5 mM Tris and 5 mM EDTA buffer (pH 7.4). The homogenates were centrifuged at 40000×g×20 minutes and the pellets were resuspended in a small volume of cold 5 mM Tris and 5 mM EDTA buffer (pH 7.4) and immediately frozen and stored at −70° C. until use. On the day of experiment, the cell membranes were resuspended in incubation buffer: 50 mM Tris (pH 7.4), 2.5 mM MgCl2, 10 μM pargyline (Fargin et al., Nature 335, 358-360, 1988). The membranes were incubated in a final volume of 0.32 ml for 30 minutes at 30° C. with 1 nM [^3H]8-OH-DPAT, in the absence or presence of the test compounds. Non-specific binding was determined in the presence of 10 μM 5-HT. Incubation was stopped by addition of cold Tris buffer and rapid filtration through UniFilter GF/C plate.
The affinity of the tested compounds was evaluated as inhibition of specific binding of the radioligand to 5-HT1A receptor (IC50) by using the non-linear curve-fitting program Allfit (De Lean et al., Am. J. Physiol. 235, E97-E102 (1978)). The IC50 value was converted to an affinity constant (Ki) by the equation of Cheng et al., Biochem. Pharmacol. 22, 3099-3108 (1973).

## COc1ccccc1N1CCN(CC[C@@H](c2ccccc2F)[C@H](N)C2CCCCC2)CC1 (single isomer, unassigned) [Example 5aA, (1R,2S) or (1S,2R)-1-Cyclohexyl-2-(2-fluorophenyl)-4-[4-(2-methoxyphenyl)piperazin-1-yl]butylamine]
  Ki: 0.6 nM

## CNC(=S)N[C@H](C1CCCCC1)[C@@H](CCN1CCN(c2ccccc2OC)CC1)c1ccccc1F (racemic) [Example 23, 1-{(RS,SR)-1-Cyclohexyl-2-(2-fluorophenyl)-4-[4-(2-methoxyphenyl)-piperazin-1-yl]butyl}-3-methylthiourea]
  Ki: 0.58 nM

## COc1ccccc1N1CCN(CC[C@H](c2ccccc2F)[C@H](N)C2CCCCC2)CC1 (racemic) [Example 5b, (RS,RS)-1-Cyclohexyl-2-(2-fluorophenyl)-4-[4-(2-methoxyphenyl)-piperazin-1-yl]butylamine]
  Ki: 0.77 nM

## CNC(C1CCCCC1)C(CCN1CCN(c2ccccc2OC)CC1)c1ccccc1F (stereo not drawn) [Example 10b]
  Ki: 1.41 nM

## COc1ccc(Br)c(CN2CCN(CCC(c3ccccc3F)C(N)C3CCCCC3)CC2)c1 (stereo not drawn) [Example 43, 4-[4-(2-Bromo-5-methoxybenzyl)piperazin-1-yl]-1-cyclohexyl-2-(2-fluorophenyl)butylamine]
  Ki: 0.3 nM

## CNC(C1CCCCC1)C(CCN1CCN(Cc2cc(OC)ccc2Br)CC1)c1ccccc1F (stereo not drawn) [Example 44, 4-[4-(2-Bromo-5-methoxybenzyl)piperazin-1-yl]-1-cyclohexyl-2-(2-fluorophenyl)butylmethylamine]
  Ki: 0.4 nM

## COc1ccccc1N1CCN(CC[C@H](c2ccccc2F)[C@@H](NC(=S)N(C)C)C2CCCCC2)CC1 (single isomer, unassigned) [Example 24B, 3-{(1S,2R) or (1R,2S)-1-Cyclohexyl-2-(2-fluorophenyl)-4-[4-(2-methoxyphenyl)piperazin-1-yl]butyl}-1,1-dimethylthiourea]
  Ki: 4.2 nM

## NC(C1CCCCC1)C(CCN1CCN(c2cccc3[nH]cnc23)CC1)c1ccccc1F (stereo not drawn) [Example 48, 4-[4-(1H-Benzimidazol-4-yl)piperazin-1-yl]-1-cyclohexyl-2-(2-fluorophenyl)butylamine]
  Ki: 0.3 nM

## COc1ccccc1N1CCN(CC[C@@H](c2ccccc2F)[C@H](NC(N)=O)C2CCCCC2)CC1 (racemic) [Example 18, {(RS,SR)-1-Cyclohexyl-2-(2-fluorophenyl)-4-[4-(2-methoxyphenyl)-piperazin-1-yl]butyl}urea]
  Ki: 1.84 nM

## O=CNC(C1CCCCC1)C(CCN1CCN(c2cccc3[nH]ccc23)CC1)c1ccccc1F (stereo not drawn) [Example 52, N-{1-Cyclohexyl-2-(2-fluorophenyl)-4-[4-(1H-indol-4-yl)piperazin-1-yl]butyl}formamide]
  Ki: 2.3 nM

## CON=C(C1CCCCC1)C(CCN1CCN(c2ccccc2OC)CC1)c1ccccc1F (stereo not drawn) [Example 2, 1-Cyclohexyl-2-(2-fluorophenyl)-4-[4-(2-methoxyphenyl)-piperazin-1-yl]butan-1-one O-methyloxime]
  Ki: 1.9 nM

## COc1ccccc1N1CCN(CC[C@@H](c2ccccc2F)[C@H](NCc2ccco2)C2CCCCC2)CC1 (racemic) [Example 14, {(RS,SR)-1-Cyclohexyl-2-(2-fluorophenyl)-4-[4-(2-methoxyphenyl)-piperazin-1-yl]butyl}furan-2-ylmethylamine]
  Ki: 0.42 nM

## COc1ccccc1N1CCN(CCC(c2ccccc2F)C(C2CCCCC2)N(Cc2ccco2)Cc2ccco2)CC1 (stereo not drawn) [Example 15]
  Ki: 7.28 nM

## COc1ccccc1N1CCN(CC[C@H](c2ccccc2F)[C@H](NC(C)=O)C2CCCCC2)CC1 (racemic) [Example 9, N-{(RS,RS)-1-Cyclohexyl-2-(2-fluorophenyl)-4-[4-(2-methoxyphenyl)-piperazin-1-yl]butyl}acetamide]
  Ki: 1.4 nM

## COc1ccccc1N1CCN(CCC(C(=NOC(C)=O)C2CCCCC2)c2ccccc2F)CC1 (stereo not drawn) [Example 3, 1-Cyclohexyl-2-(2-fluorophenyl)-4-[4-(2-methoxyphenyl)-piperazin-1-yl]butan-1-one O-acetyl oxime]
  Ki: 0.87 nM

## COc1ccc(Br)c(CN2CCN(CCC(c3ccccc3F)C(NC=O)C3CCCCC3)CC2)c1 (stereo not drawn) [Example 42, N-[4-[4-(2-Bromo-5-methoxybenzyl)piperazin-1-yl]-1-cyclohexyl-2-(2-fluorophenyl)butyl]formamide]
  Ki: 0.5 nM

## COc1ccccc1N1CCN(CC[C@@H](c2ccccc2F)[C@H](N)C2CCCCC2)CC1 (racemic) [Example 5a, (RS,SR)-1-Cyclohexyl-2-(2-fluorophenyl)-4-[4-(2-methoxyphenyl)-piperazin-1-yl]butylamine]
  Ki: 0.48 nM

## CC(=NO)C(CCN1CCN(c2cccc3c2OCCO3)CC1)c1ccccc1F (stereo not drawn) [Example 27, E(Z)-5-[4-(2,3-Dihydrobenzo[1,4]dioxin-5-yl)piperazin-1-yl]-3-(2-fluorophenyl)pentan-2-one oxime]
  Ki: 1.77 nM

## CC(=NO)C(CCN1CCN(c2ccccc2OCC(F)(F)F)CC1)c1ccccc1F (stereo not drawn) [Example 31, E(Z)-3-(2-Fluorophenyl)-5-{4-[2-(2,2,2-trifluoroethoxy)phenyl]-piperazin-1-yl}pentan-2-one oxime]
  Ki: 6.03 nM

## CNC(C1CCCCC1)C(CCN1CCN(c2cccc3c2OCCO3)CC1)c1ccccc1F (stereo not drawn) [Example 39, 1-Cyclohexyl-4-[4-(2,3-dihydrobenzo[1,4]dioxin-5-yl)piperazin-1-yl]-2-(2-fluorophenyl)butylmethylamine]
  Ki: 0.3 nM

## COc1ccccc1N1CCN(CCC(c2ccccc2F)C(NC(=O)N2CCOCC2)C2CCCCC2)CC1 (stereo not drawn) [Example 20, 1-{(RS,SR)-1-Cyclohexyl-2-(2-fluorophenyl)-4-[4-(2-methoxyphenyl)-piperazin-1-yl]butyl}morpholine-4-carboxamide]
  Ki: 2.9 nM

## N[C@H](C1CCCCC1)[C@@H](CCN1CCN(c2cccc3c2OCCO3)CC1)c1ccccc1F (racemic) [Example 38, (RS,SR)-1-Cyclohexyl-4-[4-(2,3-dihydrobenzo[1,4]dioxin-5-yl)-piperazin-1-yl]-2-(2-fluorophenyl)butylamine]
  Ki: 0.8 nM

## O=CNC(C1CCCCC1)C(CCN1CCN(c2cccc3[nH]cnc23)CC1)c1ccccc1F (stereo not drawn) [Example 47, N-[4-[4-(1H-Benzimidazol-4-yl)piperazin-1-yl]-1-cyclohexyl-2-(2-fluoro-phenyl)butyl]formamide]
  Ki: 0.8 nM

## O=CNC(C1CCCCC1)C(CCN1CCN(c2cccc3c2OCCO3)CC1)c1ccccc1F (stereo not drawn) [Example 37, N-[1-Cyclohexyl-4-[4-(2,3-dihydrobenzo[1,4]dioxin-5-yl)piperazin-1-yl]-2-(2-fluorophenyl)butyl]formamide]
  Ki: 0.8 nM

## CON=C(C)C(CCN1CCN(c2ccccc2OCC(F)(F)F)CC1)c1ccccc1F (stereo not drawn) [Example 32, E(Z)-3-(2-Fluorophenyl)-5-{4-[2-(2,2,2-trifluoroethoxy)phenyl]-piperazin-1-yl}pentan-2-one O-methyloxime]
  Ki: 2.24 nM

## CON=C(C)C(CCN1CCN(c2cccc3c2OCCO3)CC1)c1ccccc1F (mixture of isomers) [Example 28, 5-[4-(2,3-Dihydrobenzo[1,4]dioxin-5-yl)piperazin-1-yl]-3-(2-fluorophenyl)-pentan-2-one O-methyloxime]
  Ki: 1.33 nM

## COc1ccccc1N1CCN(CCC(c2ccccc2F)C(NC=O)C2CCCCC2)CC1 (stereo not drawn) [Example 6, N-{1-Cyclohexyl-2-(2-fluorophenyl)-4-[4-(2-methoxyphenyl)-piperazin-1-yl]butyl}formamide]
  Ki: 1.2 nM

## CNC(C1CCCCC1)C(CCN1CCN(c2ccccc2OC)CC1)c1ccccc1F (stereo not drawn) [Example 10a]
  Ki: 0.49 nM

## CNC(=O)N[C@H](C1CCCCC1)[C@@H](CCN1CCN(c2ccccc2OC)CC1)c1ccccc1F (racemic) [Example 19, 1-{(RS,SR)-1-Cyclohexyl-2-(2-fluorophenyl)-4-[4-(2-methoxyphenyl)-piperazin-1-yl]butyl}-3-methylurea]
  Ki: 2.09 nM

## COc1ccccc1N1CCN(CC[C@H](c2ccccc2F)[C@@H](N)C2CCCCC2)CC1 (single isomer, unassigned) [Example 5aB, (1S,2R) or (1R,2S)-1-Cyclohexyl-2-(2-fluorophenyl)-4-[4-(2-methoxyphenyl)piperazin-1-yl]butylamine]
  Ki: 1.2 nM

Source: US20070270436A1, “NOVEL AMINO- AND IMINO-ALKYLPIPERAZINES” (Recordati Ireland Limited, priority 2006, published 2007)
